{"source": "paper PMC12498190", "about": "“A Photocaged N‐Phosphonopiperidinone as a Selective Photo‐Cleavable DPP8/9 Inhibitor” (Chembiochem, 2025)", "key": {"[1]": {"molecular_target": "T1, human DPP8 (Homo sapiens, UniProt Q6V1X1)", "T1 construct": "purchased Proteros Biostructures GmbH, Germany", "T1 sequence (Q6V1X1 whole entry)": "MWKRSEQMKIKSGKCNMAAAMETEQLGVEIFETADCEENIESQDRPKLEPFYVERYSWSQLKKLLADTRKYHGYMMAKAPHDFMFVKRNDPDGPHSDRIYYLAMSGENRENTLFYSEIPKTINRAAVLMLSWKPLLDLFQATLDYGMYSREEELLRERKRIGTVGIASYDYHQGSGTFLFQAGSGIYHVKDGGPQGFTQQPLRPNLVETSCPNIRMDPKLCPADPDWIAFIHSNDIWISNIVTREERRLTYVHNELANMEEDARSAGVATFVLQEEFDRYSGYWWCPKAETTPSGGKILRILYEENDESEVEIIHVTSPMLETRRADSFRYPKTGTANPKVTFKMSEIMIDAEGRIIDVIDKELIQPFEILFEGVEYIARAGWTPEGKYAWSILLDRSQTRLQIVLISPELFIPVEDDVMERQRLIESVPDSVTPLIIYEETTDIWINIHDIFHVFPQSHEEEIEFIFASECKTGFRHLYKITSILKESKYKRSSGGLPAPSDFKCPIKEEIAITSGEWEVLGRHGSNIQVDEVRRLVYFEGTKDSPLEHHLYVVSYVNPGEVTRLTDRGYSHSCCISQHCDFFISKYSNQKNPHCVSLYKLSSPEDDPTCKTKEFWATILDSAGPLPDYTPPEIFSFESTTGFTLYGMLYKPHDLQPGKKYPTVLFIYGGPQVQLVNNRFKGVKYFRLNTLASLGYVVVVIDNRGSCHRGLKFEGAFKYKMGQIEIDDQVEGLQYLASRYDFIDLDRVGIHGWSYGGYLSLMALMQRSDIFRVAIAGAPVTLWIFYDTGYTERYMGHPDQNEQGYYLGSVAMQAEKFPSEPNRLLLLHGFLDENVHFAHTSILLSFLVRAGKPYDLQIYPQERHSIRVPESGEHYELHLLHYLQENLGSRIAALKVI", "assay": "Progress-curve kinetics of covalent DPP8 inhibition (kinact, KI)", "format": "biochemical", "conditions": "dark", "from_the_text": "As previously shown by us, 1 inhibits DPP8 and DPP9 via a covalent modification of the active site serine.^[ [31] ^] Therefore, we also measured the time dependence of this covalent modification of the target enzyme by recording progress curves for the inhibition of DPP8 and 9 and using them to calculate the corresponding binding affinity (KI), maximum enzyme inhibition rate (kinact) as well as the efficiency of covalent bond formation (kinact/KI) values for 5 after and without green light irradiation ( Figure S1 and Table S1, Supporting Information).\nTo calculate the reaction rate of covalent bond formation between DPP proteins and the inhibitor, kinact, KI, and kinact/KI were determined as previously described.^[ [49] ^, [50] ^] To this end, a dilution series of 5 was irradiated using a green LED lamp (λ = 520−530 nm; Eurolite, Germany) for 5 min and subsequently mixed with 250 µM GP‐AMC. The mixture was then added to 10 nM enzyme, and the resulting activity was measured for a maximum of 60 min at 30 °C. Fluorescence intensities were plotted against time and data were fitted to the following equation: [drawing 1] using Graph‐Pad Prism v10.4.1. The obtained pseudo first‐order rate constant was used to determine kinact and KI by fitting the plot of kobs against inhibitor concentration to the following equation: [drawing 2] . The efficiency of covalent bond formation (kinact/KI) was calculated by the ratio of kinact/KI. All measurements were performed in triplicate, and error bars represent standard errors of the fit.\nSupplementary Figure 1. Kinetic analysis of DPP8 and DPP9 inhibition by compound 5. The pseudo-first order rate constant (kobs) was calculated from an exponential regression of progress curves and plotted against the concentration of compound 5. All measurement were performed in triplicate (n = 3 technical replicates), mean values are shown and error bars indicate the standard error of the mean (SEM). Inhibition assay was performed with DPP8 (A, B) and DPP9 (C, D) under ‘dark’ (A, C) and ‘light’ (B, D) conditions. […]"}, "[2]": {"molecular_target": "DPP9 (Homo sapiens, UniProt Q86TI2)", "sequence (Q86TI2 whole entry)": "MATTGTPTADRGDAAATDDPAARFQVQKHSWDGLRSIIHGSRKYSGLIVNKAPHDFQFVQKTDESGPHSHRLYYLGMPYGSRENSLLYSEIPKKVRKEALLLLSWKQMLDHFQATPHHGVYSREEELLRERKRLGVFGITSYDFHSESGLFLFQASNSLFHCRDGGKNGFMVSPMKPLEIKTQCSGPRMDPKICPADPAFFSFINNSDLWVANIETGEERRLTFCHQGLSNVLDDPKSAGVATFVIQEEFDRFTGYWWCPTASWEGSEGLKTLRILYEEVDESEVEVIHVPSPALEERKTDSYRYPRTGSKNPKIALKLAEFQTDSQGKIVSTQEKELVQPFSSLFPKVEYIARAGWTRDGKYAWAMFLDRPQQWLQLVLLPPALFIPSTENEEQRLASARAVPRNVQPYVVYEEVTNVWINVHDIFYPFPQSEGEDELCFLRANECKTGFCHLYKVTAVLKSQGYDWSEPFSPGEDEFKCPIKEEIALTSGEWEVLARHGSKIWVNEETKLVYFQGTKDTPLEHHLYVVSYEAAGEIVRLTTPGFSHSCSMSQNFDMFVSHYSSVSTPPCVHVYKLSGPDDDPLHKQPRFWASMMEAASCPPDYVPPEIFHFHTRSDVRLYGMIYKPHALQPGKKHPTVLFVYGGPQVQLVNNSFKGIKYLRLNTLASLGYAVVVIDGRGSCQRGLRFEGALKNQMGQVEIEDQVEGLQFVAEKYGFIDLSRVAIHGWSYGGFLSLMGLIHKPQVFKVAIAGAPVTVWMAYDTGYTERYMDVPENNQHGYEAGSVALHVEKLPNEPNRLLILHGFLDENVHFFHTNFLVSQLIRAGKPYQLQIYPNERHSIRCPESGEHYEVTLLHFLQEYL", "assay": "In situ competitive ABPP in HEK293 cell culture, 100 kDa band", "format": "cell-based", "design": "endogenous in cells; host or cells: HEK293 (Cytion, Germany, 300192)", "conditions": "pre-incubation 1 h with 20 µM or 10 µM (method), 10 µM 2 for 1 h, light 5 min", "procedure": "Figure 2 Competitive ABPP with photo‐cleavable inhibitor 5 in HEK293 cells. A) Schematic overview of a competitive ABPP experiment. A proteome is pre‐incubated with a competitor, followed by a labeling reaction with an activity‐based probe (ABP). In the case of a photocaged inhibitor, the active compound can be released via irradiation. Target proteins of the competitor cannot be bound by the ABP, resulting in an absence of the respective protein band in‐gel analysis. Created in BioRender. Najdzion, M. (2025) https://BioRender.com/84zn8cb B) Gel‐based competitive ABPP experiment in HEK293 cell lysates with the broadband serine hydrolase ABP ≡FP or the DPP8/9‐directed ABP 2 and the photocaged inhibitor 5, at the indicated concentrations, after or without prior irradiation with green light for 5 min. The corresponding pre‐incubation time for 5 was 30 min. C) Corresponding in situ competitive ABPP experiment in HEK293 cell culture, again with 10 µM 2 for 1 h. […] HEK293 cells were irradiated with a green LED lamp in the presence of 0.5% DMSO for 5 min (‘light’), and cell viability was measured after 24 h. […] For both compounds, cell viability was measured under ‘dark’ (not irradiated) and ‘light’ (irradiated for 5 min with a green LED lamp after the addition of the inhibitor) conditions. […]"}}}
{"smiles": "CCCCCc1ccc(SCCP(=O)(OCC)N2CCC[C@H](NC(=O)OCC3=C4C(C)=CC(C)=[N+]4[B-](C)(C)n4c(C)cc(C)c43)C2=O)cc1", "note": "(stereo partly shown) [Compound 5]", "values": [{"measurement": "KI (inactivation)", "setting": "[1]", "result": 8.94, "unit": "µM"}, {"measurement": "kinact", "setting": "[1]", "result": 0.002, "unit": "s⁻¹"}, {"measurement": "kinact/KI", "setting": "[1]", "result": 223, "unit": "M⁻¹ s⁻¹"}, {"measurement": "Competition of DPP9 labeling in live cells (in words)", "setting": "[2]", "result": "completely inhibited"}]}
